According to PMC7747971 (Plant Communications, 2020):

What was measured:
AtTPS18 = AtTPS18 (Arabidopsis thaliana, UniProt Q9LUE2); assay: X-ray crystal structure; format: binding; conditions: AtTPS18-PP complex
AtTPS22 = target: T1, AtTPS22 (Arabidopsis thaliana, UniProt Q9LQ27); format: cell-based
T1 sequence (Q9LQ27 57-603): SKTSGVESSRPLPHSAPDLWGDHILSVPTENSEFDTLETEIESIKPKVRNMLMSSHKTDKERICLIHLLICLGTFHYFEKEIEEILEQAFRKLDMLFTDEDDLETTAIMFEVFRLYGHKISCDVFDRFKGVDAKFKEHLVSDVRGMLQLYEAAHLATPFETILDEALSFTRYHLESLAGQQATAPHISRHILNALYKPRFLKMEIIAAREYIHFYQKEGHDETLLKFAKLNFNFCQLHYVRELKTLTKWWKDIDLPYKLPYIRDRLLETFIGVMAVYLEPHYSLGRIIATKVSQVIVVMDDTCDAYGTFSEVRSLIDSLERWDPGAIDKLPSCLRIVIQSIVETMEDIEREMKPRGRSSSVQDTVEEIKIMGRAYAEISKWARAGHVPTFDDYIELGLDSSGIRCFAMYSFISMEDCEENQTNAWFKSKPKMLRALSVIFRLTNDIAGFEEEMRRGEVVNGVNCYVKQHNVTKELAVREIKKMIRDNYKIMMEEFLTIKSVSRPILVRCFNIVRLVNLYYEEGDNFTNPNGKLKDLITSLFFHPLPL

AtTPS06 = target: T2, AtTPS06 (Arabidopsis thaliana, UniProt Q84UU9); format: cell-based
T2 sequence (Q84UU9 53-611): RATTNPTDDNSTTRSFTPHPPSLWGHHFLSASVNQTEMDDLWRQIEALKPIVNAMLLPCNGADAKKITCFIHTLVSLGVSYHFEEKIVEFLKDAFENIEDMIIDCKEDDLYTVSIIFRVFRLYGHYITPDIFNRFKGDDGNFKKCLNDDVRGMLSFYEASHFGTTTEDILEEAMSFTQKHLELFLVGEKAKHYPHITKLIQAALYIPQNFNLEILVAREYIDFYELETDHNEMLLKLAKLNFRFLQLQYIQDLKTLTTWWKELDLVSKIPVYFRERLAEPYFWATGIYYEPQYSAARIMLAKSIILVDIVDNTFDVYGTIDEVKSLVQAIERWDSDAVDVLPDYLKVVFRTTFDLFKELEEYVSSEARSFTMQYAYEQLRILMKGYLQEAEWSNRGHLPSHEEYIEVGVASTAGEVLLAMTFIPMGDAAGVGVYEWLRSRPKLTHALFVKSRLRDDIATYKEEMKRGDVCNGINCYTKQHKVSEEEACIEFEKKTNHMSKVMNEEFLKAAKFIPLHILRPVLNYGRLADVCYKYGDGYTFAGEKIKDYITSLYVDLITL

AtTPS19 = AtTPS19 (Arabidopsis thaliana, UniProt Q9LUE0); format: cell-based
AtTPS29 = AtTPS29 (Arabidopsis thaliana, UniProt Q9C6W6); format: cell-based
AtTPS29, sequence (Q9C6W6 51-607): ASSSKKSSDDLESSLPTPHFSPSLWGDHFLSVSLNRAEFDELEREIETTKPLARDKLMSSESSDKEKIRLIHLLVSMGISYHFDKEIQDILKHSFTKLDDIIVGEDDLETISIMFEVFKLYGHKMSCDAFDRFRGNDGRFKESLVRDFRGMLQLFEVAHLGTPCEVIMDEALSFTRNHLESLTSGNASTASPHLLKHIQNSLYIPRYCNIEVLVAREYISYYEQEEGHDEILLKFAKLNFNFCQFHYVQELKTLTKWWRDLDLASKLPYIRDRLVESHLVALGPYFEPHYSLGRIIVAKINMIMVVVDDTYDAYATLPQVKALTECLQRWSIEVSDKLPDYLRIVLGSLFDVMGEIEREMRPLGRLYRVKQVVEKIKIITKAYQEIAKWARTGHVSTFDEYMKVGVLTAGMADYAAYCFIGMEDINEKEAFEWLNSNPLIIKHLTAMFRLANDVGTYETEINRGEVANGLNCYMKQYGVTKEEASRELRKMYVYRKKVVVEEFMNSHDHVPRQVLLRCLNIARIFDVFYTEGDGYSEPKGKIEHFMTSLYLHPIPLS

AtTPS18, sequence (Q9LUE2 52-605): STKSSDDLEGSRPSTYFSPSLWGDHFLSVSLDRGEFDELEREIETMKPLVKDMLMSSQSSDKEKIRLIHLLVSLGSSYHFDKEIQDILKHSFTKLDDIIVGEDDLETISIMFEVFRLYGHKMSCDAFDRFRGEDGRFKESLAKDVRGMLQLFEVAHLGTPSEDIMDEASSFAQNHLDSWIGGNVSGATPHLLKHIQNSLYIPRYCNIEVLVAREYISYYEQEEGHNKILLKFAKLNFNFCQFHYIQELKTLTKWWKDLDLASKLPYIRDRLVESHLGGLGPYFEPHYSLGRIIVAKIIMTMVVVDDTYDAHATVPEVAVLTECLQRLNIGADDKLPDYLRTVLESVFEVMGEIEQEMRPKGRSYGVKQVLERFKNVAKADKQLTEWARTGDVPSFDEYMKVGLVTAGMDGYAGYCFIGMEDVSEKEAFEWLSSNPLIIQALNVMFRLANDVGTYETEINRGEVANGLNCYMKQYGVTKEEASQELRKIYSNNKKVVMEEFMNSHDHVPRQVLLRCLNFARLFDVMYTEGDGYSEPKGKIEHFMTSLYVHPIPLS
AtTPS19, sequence (Q9LUE0 49-602): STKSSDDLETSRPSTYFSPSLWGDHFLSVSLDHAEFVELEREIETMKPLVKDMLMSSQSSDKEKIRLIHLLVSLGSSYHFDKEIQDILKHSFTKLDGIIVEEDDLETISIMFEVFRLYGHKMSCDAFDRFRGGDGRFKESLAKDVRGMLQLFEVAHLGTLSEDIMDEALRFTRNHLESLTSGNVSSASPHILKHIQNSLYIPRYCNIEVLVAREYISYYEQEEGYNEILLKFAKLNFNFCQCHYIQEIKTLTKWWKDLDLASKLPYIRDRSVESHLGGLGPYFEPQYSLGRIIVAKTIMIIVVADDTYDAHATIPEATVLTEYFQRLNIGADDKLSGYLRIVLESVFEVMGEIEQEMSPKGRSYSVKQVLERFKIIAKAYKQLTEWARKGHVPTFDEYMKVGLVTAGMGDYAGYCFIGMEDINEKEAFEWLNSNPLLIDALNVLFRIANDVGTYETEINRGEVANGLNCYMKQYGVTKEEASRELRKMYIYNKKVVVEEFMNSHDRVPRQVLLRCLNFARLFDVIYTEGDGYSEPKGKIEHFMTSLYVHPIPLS

Row | Compound | X-ray crystal structure (AtTPS18) | GC-MS of products in E. coli (AtTPS22) | GC-MS of products in E. coli (AtTPS06) | GC-MS of products in E. coli (AtTPS19) | GC-MS of products in E. coli (AtTPS29)
1 | O=P(O)(O)OP(=O)(O)O [PP] | AtTPS18-PP (PDB code 7BZB) |  |  |  | 
2 | CC(C)=CCC/C(C)=C/CC/C(C)=C/CC/C(C)=C/CC/C(C)=C/COP(=O)(O)OP(=O)(O)O [GFPP] |  | sesterterpenes ... were detected in transgenic E. coli strains harboring AtTPS06, AtTPS22, or AtTPS29 | AtTPS06, a multi-product enzyme, produces more than ten different sesterterpenes from GFPP | C8 (the main product of AtTPS19) | sesterterpenes ... were detected in transgenic E. coli strains harboring AtTPS06, AtTPS22, or AtTPS29
